Results: US7795220B2, “Conformationally constrained parathyroid hormones with alpha-helix stabilizers” (The General Hospital Corporation, priority 2003, dated 2010)
Non-standard residues stand in square brackets, D forms with d. Residues, ends and D or L forms follow the SMILES beside them. No end group written: not given here. hArg = N=C(N)NCCCC[C@H](N)C(=O)O; Ac5c = NC1(C(=O)O)CCCC1; Deg = CCC(N)(CC)C(=O)O; Aib = CC(C)(N)C(=O)O

How the values were obtained:
[1] = target: T1, hP1R-delNt (Homo sapiens, UniProt Q03431); test: cAMP stimulation in LdelNt-2 cells; type: cell-based
T1 construct: expressed in transfected cells
T1 sequence (Q03431 with tags, fused parts or gaps limits assumed): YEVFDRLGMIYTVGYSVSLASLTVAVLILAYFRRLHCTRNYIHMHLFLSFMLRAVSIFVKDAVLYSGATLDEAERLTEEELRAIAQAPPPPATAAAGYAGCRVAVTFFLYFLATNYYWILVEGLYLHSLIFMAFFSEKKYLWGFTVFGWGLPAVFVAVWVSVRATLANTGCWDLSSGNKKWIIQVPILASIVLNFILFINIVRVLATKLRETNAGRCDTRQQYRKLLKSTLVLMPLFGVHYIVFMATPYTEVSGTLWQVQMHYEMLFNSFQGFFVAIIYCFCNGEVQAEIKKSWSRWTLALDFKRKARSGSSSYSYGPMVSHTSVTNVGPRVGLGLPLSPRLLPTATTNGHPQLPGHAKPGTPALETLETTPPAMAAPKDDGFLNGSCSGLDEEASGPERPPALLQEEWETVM
Description: (§1) Cell Culture. The cell line HKRK-B28 (Takasu, H., et al., J. Bone Miner. Res. 14:11-20 (1999)) was derived from the porcine kidney cell line, LLC-PK1 by stable transfection with plasmid DNA encoding a recombinant P1R chimera comprised of the opposum P1R from the N-terminus to the mid region of TM3 and the rat P1R from the mid region of TM3 to the C-terminus. The surface density of the P1R in these cells is ˜280,000 receptors per cell. The clonal cell line LdelNt-2 was derived from LLC-PK, cells via stable transfection with a plasmid encoding P1R-delNt, a recombinant human PTH-1 receptor construct in which most of the amino-terminal extracellular domain is deleted. These cells, as well as COS-7 cells and SaOS-2-B10 cells, were cultured at […] in T-75 flasks ([…]) in Dulbecco's modified Eagle's medium (DMEM) supplemented with fetal bovine serum (10%), penicillin G (20 units/ml), streptomycin sulfate (20 μg/ml) and amphotericin B (0.05 μg/ml) in a humidified atmosphere containing 5% CO2. Stock solutions of EGTA/trypsin and antibiotics were from GLBCO; fetal bovine serum was from Hyclone Laboratories (Logan, Utah). COS-7 cells sub-cultured in 24-well plates were transfected with plasmid DNA (200 ng per well) encoding the wild-type human P1R or truncated human P1R deleted for residues (24-181) (Shimizu, M., et al., J. Biol. Chem. 275:21836-21843 (2000)) that was purified by cesium chloride/ethidium bromide density gradient centrifugation, and FuGENE 6 transfection reagent (Roche Indianapolis Ind.) according to the manufacturer's recommended procedure. All cells, in 24-well plates, were treated with fresh media and shifted to 33° C. for 12 to 24 h prior to assay.
(§2) cAMP Stimulation. Stimulation of cells with peptide analogs was performed in 24-well plates. Cells were rinsed with 0.5 mL of binding buffer (50 mM Tris-HCl, 100 mM NaCl, 5 mM KCl, 2 mM CaCl2, 5% heat-inactivated horse serum, 0.5% fetal bovine serum, adjusted to pH 7.5 with HCl) and treated with 200 μL of cAMP assay buffer (Delbecco's modified Eagle's medium containing 2 mM 3-isobutyl-1-methylxanthine, 1 mg/mL bovine serum albumin, 35 mM Hepes-NaOH, pH 7.4) and 100 μL of binding buffer containing varying amounts of peptide analog (final volume=300 μL). The medium was removed after incubation for 30 to 60 minutes at room temperature, and the cells were frozen on dry ice, lysed with 0.5 mL 50 mM HCl, and refrozen ([…]). The cAMP content of the diluted lysate was determined by radioimmunoassay. The EC50 response values were calculated using nonlinear regression (see below).
(§3) Data Calculation. Calculations were performed using Microsoft® Excel. Nonlinear regression analyses of binding and cAMP dose-response data were performed using the four-parameter equation: yp=Min+[(Max−Min)/(1+(IC50/x)^slope)]. The Excel Solver function was utilized for parameter optimization, as described previously (Carter, P. H., et al., Endocrinology 140: 4972-4981 (1999); Bowen, W. P., and Jerman, J. C., Trends in Pharmacol. Sci. 16: 413-417 (1995)). Differences between paired data sets were statistically evaluated using a one-tailed Student's t-test, assuming unequal variances for the two sets.
Agonist activities of selected analogs in cells expressing P1R-delNt were examined. This PTH-1 receptor construct lacks most of the N domain, but nevertheless mediates full agonist responses to N-terminally modified PTH analogs, and thus enables the relative roles of the receptor's N and J domains to the ligand interaction process to be evaluated. The clonal cell line LdelNT-2 was used, which was derived from LLC-PK, cells by stable transfection with a plasmid encoding the human P1R-delNt construct.

[2] = target: T2, P1R (recombinant P1R chimera) in HKRK-B28 cells (UniProt P25107+P25961, A364S/A509S/A517P/A524T/DEL519-521/E344G/G506A/H528S/I365V/I416T/I429T/K402R/K465R/L320I/M408V/N352H/S511P/S523T/T335G/T421L/T487S/V367L/V433I); test: biochemical; type: binding, opposum/rat chimera
T2 construct: the opposum P1R from the N-terminus to the mid region of TM3; the rat P1R from the mid region of TM3 to the C-terminus; expressed in transfected cells
T2 sequence (P25107+P25961 fused with the stated changes): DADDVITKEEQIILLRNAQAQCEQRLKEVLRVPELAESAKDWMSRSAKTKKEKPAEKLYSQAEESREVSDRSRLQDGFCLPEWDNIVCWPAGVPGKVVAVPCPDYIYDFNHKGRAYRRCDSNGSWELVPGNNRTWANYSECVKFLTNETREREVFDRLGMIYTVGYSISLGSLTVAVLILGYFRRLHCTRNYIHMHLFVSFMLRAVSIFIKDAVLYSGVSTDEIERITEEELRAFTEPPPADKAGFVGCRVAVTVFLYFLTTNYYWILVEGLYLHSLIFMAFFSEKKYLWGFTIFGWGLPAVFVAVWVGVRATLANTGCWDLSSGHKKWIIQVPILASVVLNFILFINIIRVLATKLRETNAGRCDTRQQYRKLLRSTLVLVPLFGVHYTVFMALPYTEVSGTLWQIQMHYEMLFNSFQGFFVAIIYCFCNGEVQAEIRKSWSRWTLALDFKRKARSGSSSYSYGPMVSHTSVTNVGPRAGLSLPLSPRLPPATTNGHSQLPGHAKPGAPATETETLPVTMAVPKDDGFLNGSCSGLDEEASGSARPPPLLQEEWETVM
Description: as §1
Competition Binding. Binding reactions were performed with HKRK-B28 cells or in COS-7 cells in 24-well plates. The cells were rinsed with 0.5 mL of binding buffer, and then treated successively with 100 μL binding buffer, 100 μL of binding buffer containing various amounts of unlabeled competitor ligand, and 100 μL of binding buffer containing ca. 100,000 cpm of ^125I-[Aib^1,3,Nle^8,Gln^10,Har^11,Ala^12,Trp^14,Arg^19,Tyr^21]rPTH(1-21) (SEQ. ID. NO. 36) (ca. 26 fmol; final volume=300 μL). Incubations were 4 to 6 h at 4° C., at which time near equilibrium conditions were attained. Cells were then placed on ice, the binding medium was removed, and the monolayer was rinsed three times with 0.5 mL of cold binding buffer. The cells were subsequently lysed with 0.5 mL 5N NaOH and counted for radioactivity. For each tracer and in each experiment, the non-specific binding was determined as the radioactivity that bound in the presence of the same unlabeled peptide at a concentration of 1 μM, and was ˜1% of total radioactivity added for each tracer. The maximum specific binding (B0) was the total radioactivity bound in the absence of competing ligand, corrected for nonspecific binding, and for each tracer, ranged from 8% to 20% of the total radioactivity added. Nonlinear regression was used to calculate binding IC50 values (see below). Scatchard transformations of homologous competition binding data derived from studies with 26 fmol of ^125I-[Aib^1,3,Nle^8,Gln^10,Har^11,Ala^12,Trp^14, Arg^19,Tyr^21]rPTH(1-21) (SEQ. ID. NO. 36) were employed for estimations of apparent equilibrium dissociation constant (kDapps) and total number of ligand binding sites (Bmax), assuming a single class of binding sites and equal affinities of the iodinated and non iodinated ligand.
as §3, with “Differences between paired data sets were statistically evaluated using a one-tailed Student's t-test, assuming unequal variances for the two sets.” left out

[3] = tested on: P1R (recombinant P1R chimera) in HKRK-B28 cells; test: cAMP stimulation in HKRK-B28 cells; type: cell-based, opposum/rat chimera
Description: as §1, §2, §3

[4] = tested on: P1R; test: Antagonism of agonist-induced cAMP activity; type: cell-based; settings: analog at 10^−5 M, agonist at 10^−9 M
Description: Polypeptides described herein can be screened for their agonistic or antagonistic properties using the cAMP accumulation assay. Cells expressing PTH-1 receptor on the cell surface are incubated with native PTH(1-84) (SEQ. ID. NO. 18) for 5-60 minutes at 37° C., in the presence of 2 mM IBMX (3-isobutyl-1-methyl-xanthine, Sigma, St. Louis, Mo.). Cyclic AMP accumulation is measured by specific radio-immunoassay. A compound that competes with native PTH(1-84) or PTH(1-34) (SEQ. ID. NO. 19) for binding to the PTH-1 receptor, and that inhibits the effect of native PTH(1-84) or PTH(1-34) on cAMP accumulation, is considered a competitive antagonist. Such a compound would be useful for treating hypercalcemia.
Ligands that function as antagonists can be useful for treating hyperparathyroidism. Analogs of [Ac5c^1, Aib^3, M]PTH(1-14)(parent) (SEQ. ID. NO. 15) containing N-terminal modifications predicted to dissociate signaling and binding affinity (e.g. desamino-1, Trp-2, Bpa-2, Arg-2, Deg-1,3).

CC[C@H](C)[C@H](NC(=O)[C@H](CCC(=O)O)NC(=O)C(C)(C)NC(=O)[C@@H](NC(=O)C(C)(C)N)C(C)C)C(=O)N[C@@H](CCC(N)=O)C(=O)N[C@@H](CC(C)C)C(=O)N[C@@H](CCSC)C(=O)N[C@@H](Cc1c[nH]cn1)C(=O)N[C@@H](CCC(N)=O)C(=O)N[C@@H](CCCCNC(=N)N)C(=O)N[C@@H](C)C(=O)N[C@@H](CCCCN)C(=O)N[C@@H](Cc1c[nH]c2ccccc12)C(N)=O [[Aib^1,3,M]PTH(1-14), [Aib^1,3,Gln^10,Har^11,Ala^12,Trp^14]PTH(1-14)NH2] (H-[Aib]V[Aib]EIQLMHQ[hArg]AKW-NH2)
EC50 [1]: 6.4 ± 1.6 nM

CC[C@H](C)[C@H](NC(=O)[C@H](CCC(=O)O)NC(=O)C(CC)(CC)NC(=O)[C@@H](NC(=O)C(N)(CC)CC)C(C)C)C(=O)N[C@@H](CCC(N)=O)C(=O)N[C@@H](CC(C)C)C(=O)N[C@@H](CCSC)C(=O)N[C@@H](Cc1c[nH]cn1)C(=O)N[C@@H](CCC(N)=O)C(=O)N[C@@H](CCCCNC(=N)N)C(=O)N[C@@H](C)C(=O)N[C@@H](CCCCN)C(=O)N[C@@H](Cc1c[nH]c2ccccc12)C(N)=O [[Deg^1,3,M]PTH(1-14), [Deg^1,3,Gln^10,Har^11,Ala^12,Trp^14]PTH(1-14)NH2] (H-[Deg]V[Deg]EIQLMHQ[hArg]AKW-NH2)
EC50 [1]: 1400 ± 500 nM
agonist behavior (in words) [1]: partial agonist behavior
increase in cAMP accumulation (Emax) over basal [1]: 23 fold
P1R binding affinity (in words) ([2]; in words): bound with adequate affinity
binding affinity higher than that of parent [M]PTH(1-14) ([2]; relative to parent [M]PTH(1-14)): 50 fold
maximum cAMP response as percent of that attained by the parent peptide ([3]; HKRK-B28 cells): 45%
cAMP agonist activity / signaling potency (in words) [3]: true partial agonist for cAMP formation
cAMP agonist activity / signaling potency (in words) ([3]; listed as [Deg^1,3,Gln^10,Har^11,Ala^12,Trp^14]pTH(1-14)NH2): partial agonist response

[Ac5c^1,Aib^3]PTH(1-9)NH2 ([Ac5c]V[Aib]EIQLMH-NH2; N-terminus assumed; SMILES CC[C@H](C)[C@H](NC(=O)[C@H](CCC(=O)O)NC(=O)C(C)(C)NC(=O)[C@@H](NC(=O)C1(N)CCCC1)C(C)C)C(=O)N[C@@H](CCC(N)=O)C(=O)N[C@@H](CC(C)C)C(=O)N[C@@H](CCSC)C(=O)N[C@@H](Cc1c[nH]cn1)C(N)=O) [[Ac5c^1,Aib^3,M]PTH(1-9)]
inhibition of tracer radioligand binding ([2]; concentrations as high as 1×10^−4M, HKRK-B28 cells): neither peptide inhibited the binding
increase in cAMP levels relative to basal ([3]; HKRK-B28 cells, peptide at 1×10^−4M): six
cAMP agonist activity / signaling potency (in words) [3]: clear cAMP response
cAMP agonist activity at single high concentration (in words) ([3]; peptide at 10^−4M): clear agonist activity

[Ac5c^1,Trp^2,Aib^3, M]PTH(1-14) (H-[Ac5c]W[Aib]EIQLMHQ[hArg]AKW-NH2; SMILES CC[C@H](C)[C@H](NC(=O)[C@H](CCC(=O)O)NC(=O)C(C)(C)NC(=O)[C@H](Cc1c[nH]c2ccccc12)NC(=O)C1(N)CCCC1)C(=O)N[C@@H](CCC(N)=O)C(=O)N[C@@H](CC(C)C)C(=O)N[C@@H](CCSC)C(=O)N[C@@H](Cc1c[nH]cn1)C(=O)N[C@@H](CCC(N)=O)C(=O)N[C@@H](CCCCNC(=N)N)C(=O)N[C@@H](C)C(=O)N[C@@H](CCCCN)C(=O)N[C@@H](Cc1c[nH]c2ccccc12)C(N)=O)
inhibition of the agonist activity of [Aib1,3,M]PTH(1-14) [4]: 50%
